# Entries after “also recorded” stand apart in the source; their conditions may differ. Read-outs that look alike come from different tables or passages of the source.
# What was measured:
# PRODH expression [1] = conditions: bronchial smooth muscle cells, treated (n=3) vs untreated (n=3), p=0.01; cited from earlier work
# PRODH expression [2] = experiment: Peripheral PRODH expression in first-episode never-medicated SZ patients pre and post treatment (Affymetrix U133v2.0 arrays); format: in vivo, human
# Text: Change in log PRODH were plotted for each subject prior to-(100%), and post-treatment onset. All of the subjects received risperidone. The mean time between blood draws was 8.3 days. […] There were no significant differences in time between blood draws for those with increased PRODH (n=3), versus those with no increase (n=3, p=0.2). […] In a linear regression model, PRODH percent change was a significant predictor of total Brief Psychiatric Rating Scale (BPRS) score approximately 8 days following treatment initiation (p=0.047), after adjusting for baseline total BPRS score. Furthermore, the linear relationship between PRODH change and adjusted BPRS score was highly significant (r=−0.92, p=0.025).
# Exploratory analysis of PRODH expression levels were also performed in first-episode, never-medicated SZ patients (n=6). Male, first-episode, never-medicated SZ patients were recruited at the Bellevue Hospital CPEP. A 15 ml blood sample was collected at admission to the CPEP, and peripheral PRODH expression was measured using Affymetrix U133v2.0 arrays (PRODH is one of the 54,000 transcripts). A post-treatment measurement of PRODH expression was also obtained (mean time between blood draws=8.3 days).
# plasma proline [3] = conditions: previously reported (Jacquet et al., 2005); cited from earlier work
# plasma proline [4] = experiment: Fasting plasma proline before and after oral Vitamin D supplementation; format: in vivo; conditions: oral 2000 IU daily, five fasting measurements before and five over subsequent five days, p=0.059
# Text: Affymetrix microarray data was accessed via the NCBI GEO database, accession numbers GDS1847 (FIG. 4A) and GDS2628 (FIG. 4B). […] Five fasting plasma proline measurements were obtained prior to the initiation of Vitamin D supplementation (2000 IU daily), after which an additional five fasting plasma measurements were obtained over the subsequent five days.
# As illustrated by FIG. 4, the biologically active form of vitamin D (1α,25-dihydroxyvitamin D3 [1α,25(OH)2D3]) is also a potent regulator of PRODH expression. […] Moreover, in vivo (FIG. 4C), proline levels are decreased by treatment with oral vitamin D.
# PRODH expression [5] = conditions: intestinal epithelial cells, treated (n=5) vs untreated control cells (n=5), p=0.044 one-tailed, cited from earlier work
# [6] = male infants receiving supplements (≦2000 IU/day) during first year of life; cited from earlier work
# [7] = women with high vs low dietary consumption; cited from earlier work
molecule,measurement,setting,value
"C=C1/C(=C\C=C2/CCC[C@]3(C)[C@@H]([C@H](C)CCCC(C)(C)O)CC[C@@H]23)C[C@@H](O)C[C@@H]1O [1alpha,25-dihydroxy-vitamin-D3]",PRODH expression (probeset 214203_s_at),PRODH expression [1],upregulation
Cc1nc2n(c(=O)c1CCN1CCC(c3noc4cc(F)ccc34)CC1)CCCC2 [risperidone],PRODH expression post-treatment level (mean),"PRODH expression [2]; all subjects n=6, mean 8.3 days between blood draws, pre level 6.10±0.41, p=0.3",6.24±0.35 expression units
same,decrease of PRODH expression after onset of treatment,"PRODH expression [2]; no-change group, n=3, non-significant, p=0.15",2.3%
same,change in PRODH expression between pre and post assay,"PRODH expression [2]; subset of patients (n=3), p=0.034",significantly upregulated
same,mean percent change (increase) of PRODH expression after onset of treatment,"PRODH expression [2]; subset of subjects with increase, n=3, p=0.04",7.3%
CCCC(CCC)C(=O)O [valproic acid],effect on plasma proline level,plasma proline [3],significant effect
vitamin D,plasma proline following Vitamin D treatment,plasma proline [4],trend for plasma proline to decrease
same,plasma proline following Vitamin D treatment,plasma proline [4]; listed as vitamin D,decreased
same,PRODH expression (probeset 40042_r_at),PRODH expression [5],upregulated
same,PRODH expression (probeset 40042_r_at),PRODH expression [5]; listed as vitamin D,significantly upregulates
same,PRODH expression (probeset 214203_s_at),PRODH expression [1],significantly upregulates; also recorded: upregulation
same,risk of schizophrenia,[6],significantly reduced risk
same,lower risk of psychosis-like symptoms,[7],37%
